Data taken from patent US4153695A, “Substituted 2,3-dihydro imidazo[1,2-c]pyrimidines” (priority 1978, dated 1979).
“And” between values parts separate entries of the source, which are not always exact repeats. Equal values may be shown once. Where a name gives a salt, the structure may show the parent alone. Read-outs that look alike come from different tables or passages of the source.

What was measured:
Herpes simplex virus = experiment: In vitro plaque inhibition of Herpes simplex virus in BSC-1 or Hela cells (Table 3); format: cell-based; details: for inhibition at 3 µg/mL: read-out: PERCENT INHIBITION OF PLAQUES AT 3 mcg/ml; for inhibition at 12 µg/mL: read-out: PERCENT INHIBITION OF PLAQUES AT 12 mcg/ml; for inhibition at 25 µg/mL: read-out: PERCENT INHIBITION OF PLAQUES AT 25 mcg/ml; for PERCENT INHIBITION OF PLAQUES AT 50 mcg/ml / inhibition at 50 µg/mL: 50 mcg/ml; for inhibition at 50 µg/mL: read-out: PERCENT INHIBITION OF PLAQUES AT 50 mcg/ml; for inhibition at 6 µg/mL: read-out: PERCENT INHIBITION OF PLAQUES AT 6 mcg/ml; for inhibition at 100 µg/mL: 100 mcg/ml, read-out: PERCENT INHIBITION OF PLAQUES AT 100 mcg/ml
Description: The compounds of this invention also have anti-viral activity in vitro against Herpes simplex virus.
African green monkey kidney cells (BSC-1) or Hela cells (5-3) were grown in 25 cc. Falcon flasks at 37° C. in medium 199 with 5 percent inactivated fetal bovine serum (FBS), penicillin (150 units 1 ml.) and streptomycin (150 mcg./ml.). When confluent monolayers were formed, the supernatant growth medium was removed and 0.3 ml. of an appropriate dilution of Herpes simplex virus was added to each flask. After adsorption for one hour at room temperature, the virus infected cell sheet was overlaid with a medium comprising one part of 1 percent Ionagar No. 2 and one part double strength medium 199 with FCS, (fetal calf serum) penicillin, and streptomycin and also containing drug at concentrations of 100, 50, 25, 12, 6 and 3 micrograms per milliliter (mcg./ml.). The flask containing no drug served as a control. The stock solutions of 2,3-dihydroimidazo[1,2-c]pyrimidine compounds were made up in dimethylsulfoxide dilution at a concentration of 10^4 mcg./ml. The flasks were incubated for 72 hours at 37° C. […] A solution of 10 percent formalin and 2 percent sodium acetate was added to each flask to inactivate the virus and fix the cell sheet to the surface of the flask. The virus plaques, irrespective of size, were counted after staining the surrounding cell areas with crystal violet. The plaque count was compared to the control count at each drug concentration. The activity of the test compound was expressed as percentage plaque inhibition. Table 3, which follows, embodies the results of these determinations. In the table, column 1 gives the name of the compound, columns 2 through 6, the percent inhibition of herpes simplex plaques at various mcg./ml. levels of drug.

[1] = system: cutaneous Herpes simplex virus type 1; experiment: Topical treatment of cutaneous Herpes simplex virus type 1 lesions on guinea pig back, final score (Table 1); format: in vivo, guinea pigs; details: lesions scored 0 to 4+
Description: Three epilated areas on each guinea pig back were inoculated with approximately 1×10^5 plaque forming units of virus using a Sterneedle triggered 10 times for each area. Untreated guinea pigs so inoculated developed consistent rosette lesions in about 96 hours. All three areas on the back of each guinea pig were drug-treated and these compared with separate control animals which were treated with the particular vehicle employed for administering the drug. The positive control animals were treated with 0.5-1.0 percent phosphonoacetic acid (PAA) suspended in the same vehicle as the drug. Animals were inoculated on the morning of day 1 and treated on the afternoon of day 1. Two treatments per day were administered through day 5 for a total of 10 treatments. Hair was again epilated on day 5 and readings were begun then and taken daily through day 10. Lesions for each area were scored from 0 to 4+, which was a fully developed herpatic lesion with inflammation vesicles and pustules. An average score was then calculated for each drug for each day for the number of treated areas and control areas. Usually 3-6 guinea pigs were used per drug. After scoring, a final score or mean of means was calculated for drug-treated and for control areas. Table I which follows gives the results of determinations carried out as outlined above on compounds coming within the scope of this invention. In the table, column 1 gives the name of the drugs, column 2, the vehicle, column 3, the concentration; column 4, the number of animals used; and columns 5, the final score.

[2] = system: Herpes simplex virus type I and Herpes simplex virus type II; experiment: Intravaginal treatment of Herpes simplex virus type I and type II infection in guinea pigs, final score (Table 2); format: in vivo
Description: A second in-vivo test against Herpes simplex virus type I and Herpes simplex virus type II was carried out as follows. Guinea pigs were inoculated intravaginally by swabing the vagina with an absorbent cotton swab containing 2×10^4 plaque forming units of the virus. Prior to the inoculation with the virus, the vagina was swabbed with physiological saline to remove potential virus inhibitors. Treatment was started four hours after inoculation and continued for four days. The drug in a suitable base was introduced into the vaginal area also with an absorbent cotton swab. Controls in which the vehicle only were swabbed were included. Beginning on day 5 after inoculation and continuing through day 10, each animal was examined and scored from 0 to 4+ for secretion, inflammation, vesiculation and necrosis, thus yielding a possible top score of +16 per guinea pig. In the table, column 1 gives the name of the compound; column 2, the vehicle; column 3, the concentration; column 4, the number of animals used; and columns 5, the final score.

[3] = 25 mcg/ml, 72 hours at 37° C., hydrochloride
[4] = 72 hours at 37° C., hydrochloride
[5] = 72 h, 3 mcg/ml, 72 hours at 37° C.
[6] = 72 h, 12 mcg/ml, 72 hours at 37° C.
[7] = 72 h, 25 mcg/ml, 72 hours at 37° C.
[8] = 72 h, 6 mcg/ml, 72 hours at 37° C.
[9] = vehicle R, 2.5 % conc., top score +16

SMILES | inhibition at 3 µg/mL (Herpes simplex virus; [5]) [%] | inhibition at 12 µg/mL (Herpes simplex virus; [6]) [%] | inhibition at 25 µg/mL (Herpes simplex virus; [7]) [%] | inhibition at 50 µg/mL (Herpes simplex virus; 72 h, 72 hours at 37° C.) [%] | inhibition at 6 µg/mL (Herpes simplex virus; [8]) [%] | inhibition at 100 µg/mL (Herpes simplex virus; 72 h, 72 hours at 37° C.) [%] | other results
CC1=NC(Cl)=CC2=NC(c3ccccc3)CN12.Cl (racemic) [2-phenyl-5-methyl-7-chloro-2,3-dihydroimidazo[1,2-c]pyrimidine hydrochloride] | 0 | 41 | 87 | 100 | – | – | PERCENT INHIBITION OF PLAQUES AT 12 mcg/ml (Herpes simplex virus; 12 mcg/ml, 72 hours at 37° C., hydrochloride): 50%; PERCENT INHIBITION OF PLAQUES AT 25 mcg/ml (Herpes simplex virus; [3]): 83%; PERCENT INHIBITION OF PLAQUES AT 50 mcg/ml (Herpes simplex virus; [4]): 89%
CC1=NC(Cl)=CC2=NCC(C)N12 (racemic) [dl-3,5-dimethyl-7-chloro-2,3-dihydroimidazo[1,2-c]pyrimidine hydrochloride] | – | 0 | 12 | 74 | 0 | – | –
CC1=NC(Cl)=CC2=NCC(c3ccccc3)N12 (racemic) [dl-3-phenyl-5-methyl-7-chloro-2,3-dihydroimidazo[1,2-c]pyrimidine hydrochloride] | 0 | – | 78 | 100 | 0 | – | Final Score ([1]; vehicle D, 2.5 % conc.): 1.72; PERCENT INHIBITION OF PLAQUES AT 25 mcg/ml (Herpes simplex virus; [3]): 68%; PERCENT INHIBITION OF PLAQUES AT 50 mcg/ml (Herpes simplex virus; [4]): 95%
CSC1=NC(Cl)=CC2=NCC(c3ccccc3)N21 (racemic) [dl-3-phenyl-5-methylthio-7-chloro-2,3-dihydroimidazo[1,2-c]pyrimidine hydrochloride] | – | – | – | – | – | – | inhibition at 3 µg/mL (Herpes simplex virus; 3 mcg/ml, high virus input (HV)): 23%; inhibition at 3 µg/mL (Herpes simplex virus; 3 mcg/ml, low virus input (LV)): 57%; inhibition at 6 µg/mL (Herpes simplex virus; 6 mcg/ml, high virus input (HV)): 84%; inhibition at 6 µg/mL (Herpes simplex virus; 6 mcg/ml, low virus input (LV)): 100%
NC1=NC(Cl)=CC2=NCCN12 [5-Amino-7-chloro-2,3-dihydroimidazo[1,2-c]pyrimidine hydrochloride] | 0 | 0 | 0 | 0 | 0 | 11 | –
CCC1=NC(Cl)=CC2=NCCN21.Cl [5-Ethyl-7-chloro-2,3-dihydroimidazo[1,2-c]pyrimidine hydrochloride] | 0 | – | 50 | – | – | 100 | Final Score ([1]; vehicle D, 1.0 % conc.): 1.09; Final Score ([1]; vehicle D, 1.5 % conc.): 1.53; Final Score ([1]; vehicle D, 2.5 % conc.): 1.60; Final Score [2, 9]: 2.83; PERCENT INHIBITION OF PLAQUES AT 25 mcg/ml (Herpes simplex virus; [3]): 33%; PERCENT INHIBITION OF PLAQUES AT 50 mcg/ml (Herpes simplex virus; [4]): 76%
CSC1=NC(Cl)=CC2=NCCN21.Cl [5-Methylthio-7-chloro-2,3-dihydroimidazo[1,2-c]pyrimidine hydrochloride] | 30 | 100 | – | – | 49 | – | Final Score ([1]; vehicle R, 2.5 % conc.): 2.00; Final Score ([2]; vehicle D, 2.5 % conc., top score +16): 3.81; Final Score [2, 9]: .92; PERCENT INHIBITION OF PLAQUES AT 6 mcg/ml (Herpes simplex virus; 6 mcg/ml, 72 hours at 37° C., hydrochloride): 48%
CSC1=NC(Cl)=C(c2ccccc2)C2=NCCN12.Cl [5-Methylthio-7-chloro-8-phenyl-2,3-dihydroimidazo[1,2-c]pyrimidine hydrochloride] | – | – | – | – | – | – | Final Score ([1]; vehicle D, 2.5 % conc.): 1.97; PERCENT INHIBITION OF PLAQUES AT 3 mcg/ml (Herpes simplex virus; 3 mcg/ml, 72 hours at 37° C., hydrochloride): 100% and 58%
CC1=NC(Cl)=CC2=NCCN12.Cl [5-methyl-7-chloro-2,3-dihydroimidazo[1,2-c]pyrimidine hydrochloride] | – | 0 | – | 85 | 0 | – | Final Score ([1]; vehicle B, 1.0 % conc.): 2.06; Final Score ([1]; vehicle D, 1.0 % conc.): 1.56; Final Score ([1]; vehicle K, 1.0 % conc.): 1.95; Final Score ([1]; vehicle R, 1.0 % conc.): 1.81; Final Score ([2]; vehicle C, 2.5 % conc., top score +16): 7.9; Final Score ([2]; vehicle D, 2.0 % conc., top score +16): 6.13; Final Score ([2]; vehicle R, 2.0 % conc., top score +16, hydrochloride): 3.17 and 3.57; PERCENT INHIBITION OF PLAQUES AT 50 mcg/ml (Herpes simplex virus; [4]): 82%
CNC1=CC2=NCCN2C(C)=N1 [5-methyl-7-methylamino-2,3-dihydroimidazo[1,2-c]pyrimidine dihydrochloride] | – | 0 | 27 | 18 | 0 | 30 | –
CC1=NC(N2CCCC2)=CC2=NCCN12 [5-methyl-7-pyrrolidino-2,3-dihydroimidazo[1,2-c]pyrimidine hydrochloride] | 0 | 0 | 0 | 0 | 0 | 7 | –
CCCCCC1=NC(Cl)=CC2=NCCN21 [5-n-Amyl-7-chloro-2,3-dihydroimidazo[1,2-c]pyrimidine hydrochloride] | 0 | – | – | 100 | 0 | – | –
Cl.O=[N+]([O-])C1=C(NCCCl)N=CN2CCN=C12 [7-(β-chloroethylamino)-8-nitro-2,3-dihydroimidazo[1,2-c]pyrimidine hydrochloride] | – | – | – | – | – | – | Final Score [2, 9]: 1.25; inhibition at 6 µg/mL (Herpes simplex virus; 72 h): 33%; inhibition at 12 µg/mL (Herpes simplex virus; 72 h): 41%; inhibition at 25 µg/mL (Herpes simplex virus; 72 h): 68%
CC1=NC(N(C)Cc2ccccc2)=CC2=NCCN12 [N,5-dimethyl-7-benzylamino-2,3-dihydroimidazo[1,2-c]pyrimidine hydrochloride] | – | 0 | 0 | 0 | 0 | 9 | –
